Experimental data taken from patent publication US20030134303A1, “Adenine nucleotide-binding protein-directed probes, and methods of their synthesis and use” (ActivX Biosciences, Inc,, priority 2001, published 2003).

Assays:
Assay type in all cases: binding
[1] = molecular target: EGF receptor tyrosine kinase (Homo sapiens, UniProt P00533); assay: Effect of inhibitors on EGF receptor tyrosine kinase labeling by ANBP (5) in A431 plasma membranes; details: inhibitor 50 μM, 5 minutes pretreatment, then AX0231 20 μM for 60 minutes; compared with 90% by the EGF inhibitor at 5 μM
Procedure: After 60 minutes, the reaction was quenched by the addition of gel sample buffer. The samples were electrophoresed on a 10% SDS-PAGE gel. The gel was then scanned on a FMBIO2 gel scanner, and the intensity of labeling of the EGFR was quantitated by ImageAnalysis.

[2] = molecular target: T1, epidermal growth factor receptor (EGFR) (Homo sapiens, UniProt P00533); assay: EGF receptor tyrosine kinase labeling in A431 plasma membranes, MS identification of labeled peptide; details: probe 20 μM, 3 hours, solubilized A431 plasma membranes, anti-TAMRA capture, trypsin
T1 construct: Plasma membranes containing the epidermal growth factor receptor (EGFR) were prepared from the A431 human epidermoid cancer cell line; endogenous in cells; host or cells: A431 human epidermoid cancer cells (plasma membrane preparation, Triton X-100 solubilized)
Procedure: Plasma membranes containing the epidermal growth factor receptor (EGFR) were prepared from the A431 human epidermoid cancer cell line. Approximately 1×10^8 A431 cells were resuspended in 10 mls 20 mM HEPES, pH 7.5, 0.14M NaCl, 5 mM KCl, 0.1 mM EDTA, 0.1% glucose, and 0.035% sodium bicarbonate. The cells were lysed by Dounce homogenization, and the lysate was diluted into 80 mls of 20 mM sodium borate, pH 10.2, 0.1 mM EDTA. This mixture was placed on a rocker at 4° C. for 10 minutes, and the membranes from the mixture were isolated by centrifugation at 16,000 rpm for 30 minutes in a Beckman JA17 rotor. The plasma membranes were further purified by centrifugation over a 40%/30% sucrose cushion at 30000 rpm for 60 minutes in a Beckman MLS 50 swinging bucket rotor. The plasma membranes were collected at the aqueous—sucrose interface, and solubilized in buffer containing 20 mM HEPES, pH 7.5, 50 mM NaCl, 20 mM MgCl2, 0.05 mg/ml BSA, and 0.1% Triton-X-100.
Solubilized A431 plasma membranes (˜0.5 mg total protein) were incubated with (5)(20 μM) for 3 hours. […]
The proteins in this band were trypsinized, and the tryptic peptides were extracted. […] After elution from the beads the captured fragment was analyzed by mass spectroscopy (MS) to identify the peptide sequence: […]

[3] = molecular target: T2, GST-fusion protein of the insulin receptor kinase domain (GST-InsRK) (Homo sapiens, UniProt P06213)
T2 construct: GST-fusion protein of the insulin receptor kinase domain (GST-InsRK)
T2 sequence (P06213 1023-1298 limits assumed): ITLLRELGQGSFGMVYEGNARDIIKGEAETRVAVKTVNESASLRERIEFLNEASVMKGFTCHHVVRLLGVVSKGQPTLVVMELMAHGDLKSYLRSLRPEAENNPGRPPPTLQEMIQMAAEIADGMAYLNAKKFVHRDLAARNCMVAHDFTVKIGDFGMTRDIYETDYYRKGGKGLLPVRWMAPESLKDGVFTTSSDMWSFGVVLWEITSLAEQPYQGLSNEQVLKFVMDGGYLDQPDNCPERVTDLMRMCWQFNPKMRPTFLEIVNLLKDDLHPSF

| Compound | inhibition of probe labeling of EGFR [1] | site of labeling in EGFR (probe-labeled tryptic peptide, K*) [2] | labeling of GST-InsRK by probe [3] |
| --- | --- | --- | --- |
| COC(=O)c1ccc(NCc2cc(O)ccc2O)cc1 [AG957] | significantly less inhibition | – | – |
| 5′-FSB-amido-2′(3′)-(2-TAMRA-amidoethylcarbamoyl)adenosine [Compound 5] | – | located within the active site of the protein | labeled |
